Experimental data published in US6750228B1, “Aromatic sulfone hydroxamic acid metalloprotease inhibitor” (priority 1997, dated 2004).
pIC50: −log10 of the molar value. Counter-ions that a name gives are not always drawn. Like-named read-outs stand apart in the source and are kept apart here.

How the values were obtained:
Assay in all cases: biochemical
MMP-2 = biological target: T1, MMP-2 (Homo sapiens, UniProt P08253); settings: read-out: MMP-2 IC50
T1 construct: made in house; provided by Dr. Gregory Goldberg, Washington University
T1 sequence (P08253 110-660): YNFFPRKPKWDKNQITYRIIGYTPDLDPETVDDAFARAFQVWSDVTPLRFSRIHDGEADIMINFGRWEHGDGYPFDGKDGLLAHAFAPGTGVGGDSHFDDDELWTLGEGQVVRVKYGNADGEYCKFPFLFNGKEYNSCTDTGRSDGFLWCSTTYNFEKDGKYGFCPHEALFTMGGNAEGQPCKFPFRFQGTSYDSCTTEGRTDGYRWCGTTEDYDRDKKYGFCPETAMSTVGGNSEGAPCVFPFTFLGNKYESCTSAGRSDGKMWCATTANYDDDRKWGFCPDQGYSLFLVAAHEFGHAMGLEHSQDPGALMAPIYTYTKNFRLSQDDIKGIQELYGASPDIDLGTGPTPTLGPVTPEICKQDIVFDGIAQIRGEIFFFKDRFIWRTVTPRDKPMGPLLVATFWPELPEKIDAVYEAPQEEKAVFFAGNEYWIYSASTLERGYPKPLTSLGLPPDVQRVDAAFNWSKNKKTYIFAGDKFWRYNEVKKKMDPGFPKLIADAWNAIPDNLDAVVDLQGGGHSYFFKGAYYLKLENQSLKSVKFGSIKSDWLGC
Protocol: (§1) The compounds prepared in the manner described in the Examples above were assayed for activity by an in vitro assay. […] Briefly, 4-aminophenylmercuric acetate (APMA) or trypsin-activated MMPs were incubated with various concentrations of the inhibitor compound at room temperature for 5 minutes.
(§2) The expressed enzyme was purified first over a heparin agarose column and then over a chelating zinc chloride column. The proenzyme was activated by APMA for use in the assay.
(§3) MMP-1 expressed in transfected HT-1080 cells was provided by Dr. Harold Welgus of Washington University, St. Louis, Mo. The enzyme was also activated using APMA and was then purified over a hydroxamic acid column. Dr. Welgus also provided transfected HT-1080 cells that expressed MMP-9. Transfected cells that expressed MMP-2 were provided by Dr. Gregory Goldberg, also of Washington University. Studies with MMP-7 were carried out at pH 7.5 in the presence of 0.02% 2-mercaptoethanol using conditions otherwise similar to those used for the other enzymes. The enzyme was obtaind from a hMMP-7-expressing E. coli clone that was a gift of Dr. Steven Shapiro of Washington University, St. Louis, Mo. Further specifics for preparation and use of these enzymes can be found in the scientific literature describing these enzymes. See, for example, Enzyme Nomenclature, Academic Press, San Diego, Calif. […] The enzyme substrate is a methoxycoumarin-containing polypeptide having the following sequence:
(§4) MCA-ProLeuGlyLeuDpaAlaArgNH2, wherein MCA is methoxycoumarin and Dpa is 3-(2,4-dinitrophenyl)-L-2,3-diaminopropionyl alanine.
(§5) The buffer used for assays contained 100 mM Tris-HCl, 100 mM NaCl, 10 mM CaCl2 and 0.05 percent polyethyleneglycol (23) lauryl ether at a pH value of 7.5. Assays were carried out at room temperature, and dimethyl sulfoxide (DMSO) at a final concentration of 1 percent was used to dissolve inhibitor compound.
(§6) The assayed inhibitor compound in DMSO/buffer solution was compared to an equal amount of DMSO/buffer with no inhibitor as control using Microfluor White Plates (Dynatech). The inhibitor or control solution was maintained in the plate for 10 minutes and the substrate was added to provide a final concentration of 4 μM.
(§7) Inhibition was measured as a reduction in fluorescent intensity as a function of inhibitor concentration, using a Perkin Elmer L550 plate reader. The IC50 values were calculated from those values. The results are set forth in the Inhibition Table A, below, reported in terms of IC50 to three significant figures, where appropriate.

MMP-1 = biological target: T2, MMP-1 (Homo sapiens, UniProt P03956); settings: read-out: MMP-1 IC50
T2 construct: made in house; host or cells: transfected HT-1080 cells (provided by Dr. Harold Welgus, Washington University)
T2 sequence (P03956 100-469): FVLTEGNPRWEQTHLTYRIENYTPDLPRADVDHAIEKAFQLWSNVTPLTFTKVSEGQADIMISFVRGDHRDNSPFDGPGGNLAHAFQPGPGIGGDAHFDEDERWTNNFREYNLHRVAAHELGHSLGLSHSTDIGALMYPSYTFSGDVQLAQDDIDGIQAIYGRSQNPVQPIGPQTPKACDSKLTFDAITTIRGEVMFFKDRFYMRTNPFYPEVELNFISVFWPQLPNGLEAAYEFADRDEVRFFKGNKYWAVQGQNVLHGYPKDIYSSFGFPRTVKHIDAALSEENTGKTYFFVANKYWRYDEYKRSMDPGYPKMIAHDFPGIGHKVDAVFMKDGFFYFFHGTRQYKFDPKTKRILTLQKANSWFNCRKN
Protocol: as §1, §2, §3, §4, §5, §6, §7

MMP-13 = biological target: T3, MMP-13 (Homo sapiens, UniProt P45452); settings: for pIC50: read-out: MMP-13 IC50; for IC50: MMP-13 IC50 (nM)
T3 construct: made in house; host or cells: baculovirus / insect cells
Protocol: as §1, §2, §3, §4, §5, §6, §7

[1] = recombinant human MMP-2, MCA peptide substrate 4 μM, pH 7.5, room temperature
[2] = recombinant human MMP-1, MCA peptide substrate 4 μM, pH 7.5, room temperature
[3] = recombinant human MMP-13, MCA peptide substrate 4 μM, pH 7.5, room temperature

Row | Compound | pIC50 (MMP-2; [1]) | pIC50 (MMP-1; [2]) | pIC50 (MMP-13; [3]) | IC50 (MMP-13; [3]) [nM] | pIC50 (MMP-2) | pIC50 (MMP-1) | pIC50 (MMP-13)
1 | Cc1ccc(C(=O)C2CCN(c3ccc(S(=O)(=O)C4(C(=O)NO)CCOCC4)cc3)CC2)cc1C [Example 737] | 5.89 | < 5.00 | 8.52 |  |  |  | 
2 | O=C(NO)C1(S(=O)(=O)c2ccc(N3CC=C(c4ccccc4C(F)(F)F)CC3)cc2)CCOCC1 [Example 208] | 6.00 | < 5.00 | 6.96 |  |  |  | 
3 | COCCNCCCCC(=O)N1CCC(C(=O)NO)(S(=O)(=O)c2ccc(Oc3ccc(C(F)(F)F)cc3)cc2)CC1 [Example 347] | 9.15 | < 5.00 | 8.52 |  |  |  | 
4 | CC1CC(C)CN(C(=O)C2CCN(c3ccc(S(=O)(=O)C4(C(=O)NO)CCN(C(=O)CNCCCO)CC4)cc3)CC2)C1 (stereo not drawn) [Example 280] | < 5.00 | < 5.00 | 7.05 |  |  |  | 
5 | O=C(NO)C1(S(=O)(=O)c2ccc(N3CCC(c4cccc5ccccc45)CC3)cc2)CCOCC1 [Example 540] | 6.30 | < 5.00 |  | 11.4 |  |  | 
6 | O=C(C1CCN(c2ccc(S(=O)(=O)C3(C(=O)NO)CCOCC3)cc2)CC1)N1CCN(c2ccc(C(F)(F)F)cc2[N+](=O)[O-])CC1 [Example 32] |  |  |  |  | 6.10 | < 5.00 | 8.00
7 | O=C(NO)C1(S(=O)(=O)c2ccc(N3CCN(c4ccc(Cl)cc4)CC3)cc2)CCOCC1 [Example 659] | 8.43 | < 5.00 | 9.00 |  |  |  | 
8 | O=C(NO)C1(S(=O)(=O)c2ccc(N3CCC(c4cccc5c4CCCC5)CC3)cc2)CCOCC1 [Example 473] | 5.48 | < 5.00 | 6.80 |  |  |  | 
9 | CC1CC(C)CN(C(=O)C2CCN(c3ccc(S(=O)(=O)C4(C(=O)NO)CCN(C(=O)Cn5ccnc5)CC4)cc3)CC2)C1 (stereo not drawn) [Example 279] | 5.14 | < 5.00 | 7.70 |  |  |  | 
10 | CC1CC(C)CN(C(=O)C2CCN(c3ccc(S(=O)(=O)C4(C(=O)NO)CCN(C(=O)CNCCOCCO)CC4)cc3)CC2)C1 (stereo not drawn) [Example 301] | < 5.00 | < 5.00 | 7.05 |  |  |  | 
11 | Cc1cc(C(=O)C2CCN(c3ccc(S(=O)(=O)C4(C(=O)NO)CCOCC4)cc3)CC2)ccc1Cl [Example 858] | 6.22 | < 5.00 | 8.43 |  |  |  | 
12 | O=C(C1CCN(c2ccc(S(=O)(=O)C3(C(=O)NO)CCOCC3)cc2)CC1)N1CCN(c2ccncc2)CC1 [Example 37] |  |  |  | 30 | 5.76 | < 5.00 | 
13 | COc1ccccc1C(=O)C1CCN(c2ccc(S(=O)(=O)C3(C(=O)NO)CCOCC3)cc2)CC1 [Example 655] | 5.85 | < 5.00 | 7.43 |  |  |  | 
14 | O=C(CN1CCCC1)N1CCC(C(=O)NO)(S(=O)(=O)c2ccc(Oc3ccc(C(F)(F)F)cc3)cc2)CC1 [Example 326] | 9.35 | < 5.00 | 9.22 |  |  |  | 
15 | CC1CC(C)CN(C(=O)C2CCN(c3ccc(S(=O)(=O)C4(C(=O)NO)CCN(C(=O)OCC5c6ccccc6-c6ccccc65)CC4)cc3)CC2)C1 (stereo not drawn) [Example 274] |  |  |  |  | < 5.00 | < 5.00 | 6.80

The next lines start with results.

Row | pIC50 (MMP-2; [1]) | pIC50 (MMP-1; [2]) | pIC50 (MMP-13; [3]) | Compound | IC50 (MMP-13; [3]) [nM] | pIC50 (MMP-2) | pIC50 (MMP-1) | pIC50 (MMP-13)
16 | 5.85 | < 5.00 | 7.30 | O=C(NO)C1(S(=O)(=O)c2ccc(N3CCC(Oc4ccc([N+](=O)[O-])cc4C(F)(F)F)CC3)cc2)CCOCC1 [Example 481] |  |  |  | 
17 | 6.22 | < 5.00 | 8.00 | Cc1cc(C)cc(OC2CCN(c3ccc(S(=O)(=O)C4(C(=O)NO)CCOCC4)cc3)CC2)c1 [Example 187] |  |  |  | 
18 | 5.28 | < 5.00 | 6.63 | COCCN1CCC(C(=O)NO)(S(=O)(=O)c2ccc(N3CCC(C(=O)N(C)CCc4ccccn4)CC3)cc2)CC1 [Example 235, 1-[4-[[4[(Hydroxyamino)carbonyl]-1-(2-methoxyethyl)-4-piperidinyl]sulfonyl]phenyl]-N-methyl-N-[2-(2-pyridinyl)ethyl]-4-piperidinecarboxamide, Dihydrochloride] |  |  |  | 
19 | 7.00 | < 5.00 | 8.57 | O=C(NO)C1(S(=O)(=O)c2ccc(N3CCC(OCc4ccc(Br)cc4)CC3)cc2)CCOCC1 [Example 579] |  |  |  | 
20 | 7.46 | < 5.00 | 8.52 | O=C(NO)C1(S(=O)(=O)c2ccc(N3CCN(S(=O)(=O)c4cccs4)CC3)cc2)CCOCC1 [Example 685] |  |  |  | 
21 | 9.40 | < 5.00 | 9.05 | CCN(CC(=O)N1CCC(C(=O)NO)(S(=O)(=O)c2ccc(Oc3ccc(C(F)(F)F)cc3)cc2)CC1)Cc1ccncc1 [Example 329] |  |  |  | 
22 | 5.82 | < 5.00 | 7.37 | COCCN1CCC(C(=O)NO)(S(=O)(=O)c2ccc(N3CCC(C(=O)NC4Cc5ccccc5C4)CC3)cc2)CC1 [Example 242, 4-[[4-[4-[[(2,3-Dihydro-1H-inden-2-yl)amino]carbonyl]-1-piperidinyl]phenyl]sulfonyl]-N-hydroxy-1-(2-methoxyethyl)-4-piperidinecarboxamide, Monohydrochloride] |  |  |  | 
23 | 5.52 | < 5.00 | 7.15 | CCC(CC)COCc1ccc(COC2CCN(c3ccc(S(=O)(=O)C4(C(=O)NO)CCOCC4)cc3)CC2)cc1 [Example 602] |  |  |  | 
24 | 7.00 | < 5.00 | 7.68 | O=C(NO)C1(S(=O)(=O)c2ccc([C@H]3CC[C@H](c4ccccc4)CC3)cc2)CCOCC1 [Example 782] |  |  |  | 
25 | 7.38 | < 5.00 | 8.30 | C/C=C/CC(=O)C1CCN(c2ccc(S(=O)(=O)C3(C(=O)NO)CCOCC3)cc2)CC1 [Example 761] |  |  |  | 
26 | 9.10 | < 5.00 | 7.94 | O=C(c1ccc(OC(F)(F)F)cc1)N1CCC(C(=O)NO)(S(=O)(=O)c2ccc(Oc3ccc(C(F)(F)F)cc3)cc2)CC1 [Example 140] |  |  |  | 
27 | 9.40 | < 5.00 | 9.46 | O=C(CN1CCNCC1)N1CCC(C(=O)NO)(S(=O)(=O)c2ccc(Oc3ccc(C(F)(F)F)cc3)cc2)CC1 [Example 328] |  |  |  | 
28 | 6.43 | < 5.00 | 7.10 | O=C(NO)C1(S(=O)(=O)c2ccc(N3CCN(Cc4ccccc4)CC3)cc2)CCOCC1 [Example 538] |  |  |  | 
29 | < 5.00 | < 5.00 | 5.92 | O=C(NO)C1(S(=O)(=O)c2ccc(N3CCC(CC4CC4)CC3)cc2)CCOCC1 [Example 816] |  |  |  | 
30 | 6.77 | < 5.00 | 8.64 | CCc1cccc([C@@H](C)C2CCN(c3ccc(S(=O)(=O)C4(C(=O)NO)CCOCC4)cc3)CC2)c1 [Example 831] |  |  |  | 
